Laboratory results as given in patent US12297178B2, “Triazole derivative and use thereof” (GYEONGGIDO BUSINESS & SCIENCE ACCELERATOR, priority 2017, dated 2025).

What was measured:
[1] = test system: UCP1 (uncoupling protein-1); test: Adipocyte differentiation induction experiment: relative UCP1 expression by real time PCR in C3H10T1/2 cells differentiated into white adipocytes; assay type: cell-based; conditions: compound 20 μM; for Relative expression level of UCP1 compared to DMSO: relative to DMSO control; for Relative expression level of UCP1 compared to butein: relative to butein 20 μM control
Description: C3H10T1/2 cells were commercially purchased, and then differentiated into white adipocytes. The differentiated adipocytes were treated with the compounds obtained in the Preparation Examples at a concentration of 20 μM. A group treated with DMSO at a concentration of 20 μM and a group treated with butein at a concentration of 20 μM were used as a control group, respectively.
While the UCP1 (uncoupling protein-1) is contained in the mitochondria of brown adipocytes or beige adipocytes, it is difficult to find UCP1 in white adipocytes having little mitochondria. Therefore, by measuring the expression level of UCP1, it is possible to determine whether preadipocytes have differentiated into white adipocytes or otherwise brown adipocytes or beige adipocytes. The higher the expression level of UCP1, the more differentiated preadipocytes into brown adipocytes or beige adipocytes.

UCP1 = conditions: reported in US Patent Publication No. US 2015/0374643 A1; cited from earlier work

C[NH+](C)CCOc1ccc(-n2cc(-c3ccc(O)c(O)c3)nn2)cc1.[Cl-] [Compound 16, 4-(1-(4-(2-(dimethylamino)ethoxy)phenyl)-1H-1,2,3-triazole-4-yl)benzene-1,2-diol Hydrochloride]
Relative expression level of UCP1 compared to DMSO [1]: 2.3
Relative expression level of UCP1 compared to butein [1]: 37.0

Cc1cc(-n2cc(-c3ccc(O)c(O)c3)nn2)ccc1O [Compound 5, 4-(1-(4-hydroxy-3-methylphenyl)-1H-1,2,3-triazole-4-yl)benzene-1.2-diol]
Relative expression level of UCP1 compared to DMSO [1]: 2.3
Relative expression level of UCP1 compared to butein [1]: 20.6

O=C(/C=C/c1ccc(O)c(O)c1)c1ccc(O)cc1O [butein]
Effect on expression level of UCP1 (UCP1): increases the expression level of UCP1

Oc1ccc(-c2cn(-c3ccc(F)cc3)nn2)cc1O [Compound 3, 4-(1-(4-fluorophenyl)-1H-1,2,3-triazole-4-yl)benzene-1,2-diol]
Relative expression level of UCP1 compared to DMSO [1]: 12.2
Relative expression level of UCP1 compared to butein [1]: 34.1

COc1ccc(-n2cc(-c3ccc(O)c(O)c3)nn2)c(OC)c1 [Compound 1, 4-(1-(2,4-dimethoxyphenyl)-1H-1,2,3-triazole-4-yl)benzene-1.2-diol]
Relative expression level of UCP1 compared to DMSO [1]: 3.5
Relative expression level of UCP1 compared to butein [1]: 12.2

OCCOc1ccc(-n2cc(-c3ccc(O)c(O)c3)nn2)cc1 [Compound 15, 4-(1-(4-(2-hydroxyethoxy)phenyl)-1H-1,2,3-triazole-4-yl)benzene-1,2-diol]
Relative expression level of UCP1 compared to DMSO [1]: 1.6
Relative expression level of UCP1 compared to butein [1]: 26.9

Nc1c(-c2ccc(Cl)cc2)nnn1-c1ccc(O)c(O)c1 [Compound 24, 4-(5-amino-4-(4-chlorophenyl)-1H-1,2,3-triazole-1-yl)benzene-1,2-diol]
Relative expression level of UCP1 compared to DMSO [1]: 10.6
Relative expression level of UCP1 compared to butein [1]: 29.7

Oc1ccc(-n2cc(-c3ccc(O)c(O)c3)nn2)cc1 [Compound 4, 4-(1-(4-hydroxyphenyl)-1H-1,2,3-triazole-4-yl)benzene-1,2-diol]
Relative expression level of UCP1 compared to DMSO [1]: 2.1
Relative expression level of UCP1 compared to butein [1]: 18.6

Oc1ccc(-c2cn(-c3ccc(Cl)cc3)nn2)cc1O [Compound 2, 4-(1-(4-chlorophenyl)-1H-1,2,3-triazole-4-yl)benzene-1,2-diol]
Relative expression level of UCP1 compared to DMSO [1]: 6.6
Relative expression level of UCP1 compared to butein [1]: 18.6
